The values below come from patent US9012397B2 (priority 2011, dated 2015).

Like-named read-outs stand apart in the source and are kept apart here. Some results are limits rather than exact numbers.

The experiment deals with psoriasis. It is filed as in vivo, human. The conditions noted are these: person. The procedure:
The method of the invention has been carried out with respect to a number of skin disorders. The patients were treated with one of two peptides, each at a concentration of 50 μg/gr cream (unless otherwise indicated):
The cream was manufactured by Amiga LTD, Israel, and contains the following components:
1. A person suffered from intermittent psoriasis on their head over many years. […] The patient believes that the frequency of the outbreaks has been reduced.
2. A person suffered from psoriasis on the hands. […] The patient believes that a 20% improvement has occurred over 2 weeks.
3. A person suffered from psoriasis in the anus.
4. A person suffered from extensive psoriasis at various locations. ZEP3 (500 μg/gr cream) was applied to the sores as needed. • Results: the itching ceased within 12 hours.
5. A person suffered from chronic psoriasis on the elbow.
6. A person suffered from severe psoriasis at various locations. They regularly went for treatments to the Dead Sea in Israel.

Where [1] appears, read: chronic psoriasis on elbow, 500 μg/gr cream.
Setting [2] is: intermittent psoriasis on head, 500 μg/gr cream once or twice a day.

As for pGLU-ASN-TRP-LYS-C8 [ZEP3], the clinical outcome under setting [1] is “the flaking of the skin disappeared and the normal skin appearance returned”; the clinical outcome under setting [2] was “the disease disappeared”; the clinical outcome (psoriasis in the anus, (500 μg/gr cream) once a day, stopped several days, repeated for 4 days) is given as “the psoriasis disappeared”; the clinical outcome (psoriasis on hands, 500 μg/gr cream once a day) was “feels relief; the skin is pleasant feeling and not itchy”. Further, the “time until itching terminated” value under setting [1] turned out to be 2 h. Where the note is “extensive psoriasis, 500 μg/gr cream as needed”, the “time until itching ceased” value was at most 12 h. This substance also yielded a time to relief under setting [2] of 10 to 20 min. Also, the “time until relief is felt” value (psoriasis in the anus, (500 μg/gr cream) once a day) is 4 days. In addition, the “improvement as believed by the patient” value (psoriasis on hands, 500 μg/gr cream once a day, over 2 weeks) turned out to be 20%.
